# Test results taken from patent publication US9856212B1, “Biphenyl compounds and applications thereof” (Shenyang Sinochem Agrochemicals R&D Co., Ltd., priority 2017, dated 2018).
# How the values were obtained:
# Type in all cases: in vivo
# [1] = test system: adult spider mites (Tetranychuscinnabarinus); test: Test against adult spider mite, greenhouse spray on bean leaves; settings: after 72 h
# Description: The adult spider mites (Tetranychuscinnabarinus) were put into two true leaves of bean plants. After the number of mites were investigated, the solution of certain concentrations of test compounds was sprayed by using a sprinkler. Three replicates were set for each treatment. Then the leaves were maintained in standard observation room. After 72 h the survival mites in each leaf were observed, and mortality of the mites was determined.
# [2] = test system: egg of spider mite (Tetranychuscinnabarinus); test: Test against egg of spider mite, greenhouse spray; settings: eggs, 5 days
# Description: Two true leaves of bean plants were taken and one true leaf was removed. Then ten healthy female adult spider mites were put into the true leaf. The adult spider mites were removed after 24 h and the eggs were investigated. The solution of certain concentrations of test compounds was sprayed by using a sprinkler. Three replicates were set for each treatment. The untreated eggs were all incubated after 5 days. The unincubation of treated eggs in leaf was observed, and incubation inhibition rate of the eggs was determined.
# [3] = test system: citrus red mite (Panonychuscitri); test: Field trial against citrus red mite (Jiangxi, China); settings: orange orchard
# Description: The trial was carried out in a 2-year-old Shatang orange orchard in Ganzhou city Jiangxi province, trifoliate orange trees were selected as stocks, the intervals between two plants was 1.50×2.50 m, the average height was 1.45 m and the crown width was 1.30 m. Two trees were selected in each plot, with random arrangement and 4 replications. Compound 1 (10% SC) was set at three different doses (100 mg/L, 50 mg/L and 25 mg/L), spirodiclofen (29% SC) was set at one dose (50 mg/L), and pyridaben (20% EC) was set at one dose (100 mg/L). MatabiSupergreen 16 Knapsack Sprayer 16 Liter was used to spray evenly with 2 L of spraying volume for each plant. The plants were treated once in May at that time, adults, nymphs, eggs of citrus red mite all existed, with adults/eggs=1/1.2. During the day the plants were treated, and the weather was good with the average temperature at 24° C. The first three days after treatment were all clear days. The number of mites was investigated before treatment and on the 1st, 3rd, 7th, 14th, 22nd and 28th day after treatment respectively. Two trees of each plot were investigated according to the five directions of the tree crown (east, south, west, north and central), 5 leaves in each direction were investigated to calculate the number of living mites, with 50 leaves each plot. The decline rate of mite population and corrected efficacy were calculated according to formulas below: The decline rate of mite population (%)=[(the average number of mite on each leaf before treatment−the average number of mite on each leaf after treatment)/the average number of mite on each leaf before treatment]×100. Corrected efficacy (%)=[(the decline rate of mite population in treated area−the decline rate of mite population in untreated area)/(100−the decline rate of mite population in untreated area)]×100.
# [4] = test system: deutonymph of spider mite (Tetranychuscinnabarinus); test: Test against deutonymph of spider mite, greenhouse spray; settings: after 72 h
# Description: Ten healthy female adult spider mites (Tetranychuscinnabarinus) were put into two true leaves of bean plants. The adult spider mites were removed after 24 h and the eggs were to be continued incubating. After ten days, the number of deutonymph were investigated and recorded. The solution of certain concentrations of test compounds was sprayed by using a sprinkler. Three replicates were set for each treatment. Then the deutonymph of spider mites were maintained in standard observation room. After 72 h, the survival mites in each leaf were observed, and mortality of the mites was determined.
# spider mites = test: Test of systemic activity against spider mite through root absorption; settings: root absorption 24 h, mites on bean leaves, after 72 h
# Description: The high acaricidal compound 1 were dissolved in acetone, and then diluted with 0.1% aqueous solution of Tween 80 to form test solution in different concentration. Three replicates were set for each treatment. Water is blank control. The 10 ml compound 1 solution was added into the tube. Two true leaves bean plants were taken and the soil in the root was removed. The bean plant was dipped into the test solution in different concentration. After absorbing 24 h, 30 to 50 spider mites were put onto the true leaves. Then the bean plants were maintained in observation room at 25±1° C. After 72 h, the death and survival mites in each leaf was observed, the mortality of the mites and systemic activity was determined.
# [5] = 50 mg/L, the 1st day after treatment
# [6] = 50 mg/L, the 3rd day after treatment
# [7] = 50 mg/L, the 7th day after treatment
# [8] = 50 mg/L, the 14th day after treatment
# [9] = 50 mg/L, the 22nd day after treatment
# [10] = 50 mg/L, the 28th day after treatment
# [11] = 100 mg/L, the 1st day after treatment
# [12] = 100 mg/L, the 3rd day after treatment
# [13] = 100 mg/L, the 7th day after treatment
# [14] = 100 mg/L, the 14th day after treatment
# [15] = 100 mg/L, the 22nd day after treatment
# [16] = 100 mg/L, the 28th day after treatment
structure (smiles),measurement,setting,value
Cc1cc(F)c(-c2cc([S+]([O-])CC(F)(F)F)c(C)cc2F)cc1[S+]([O-])CC(F)(F)F (centres unmarked) [Compound 3],Mortality (%),[1]; 100 mg/L,100%
Cc1cc(F)c(-c2cc(SCC(F)F)c(C)cc2F)cc1SCC(F)F [Compound 62],Mortality (%),[1]; 100 mg/L,100%
"CCC(C)(C)C(=O)OC1=C(c2ccc(Cl)cc2Cl)C(=O)OC12CCCCC2 [spirodiclofen, reference compound]",Incubation inhibition rate (%),[2]; 0.25 mg/L,13%
same,Incubation inhibition rate (%),[2]; 1 mg/L,37%
same,Incubation inhibition rate (%),[2]; 5 mg/L,100%
same,Corrected efficacy (%),[3]; [5],20%
same,Corrected efficacy (%),[3]; [6],48%
same,Corrected efficacy (%),[3]; [7],63%
same,Corrected efficacy (%),[3]; [8],80%
same,Corrected efficacy (%),[3]; [9],71%
same,Corrected efficacy (%),[3]; [10],70%
Cc1cc(F)c(-c2cc([S+]([O-])CC(F)(F)F)c(C)cc2F)cc1SCC(F)(F)F (centres unmarked) [Compound 2],Mortality (%),[1]; 100 mg/L,100%
"CC(C)(C)c1ccc(CSc2cnn(C(C)(C)C)c(=O)c2Cl)cc1 [pyridaben, reference compound]",Mortality (%),[4]; 0.25 mg/L,25%
same,Mortality (%),[4]; 0.5 mg/L,60%
same,Mortality (%),[4]; 1 mg/L,84%
same,Corrected efficacy (%),[3]; [11],0%
same,Corrected efficacy (%),[3]; [12],65%
same,Corrected efficacy (%),[3]; [13],90%
same,Corrected efficacy (%),[3]; [14],93%
same,Corrected efficacy (%),[3]; [15],92%
same,Corrected efficacy (%),[3]; [16],95%
Cc1cc(F)c(-c2cc([S+]([O-])CC(F)F)c(C)cc2F)cc1SCC(F)F (centres unmarked) [Compound 63],Mortality (%),[1]; 100 mg/L,100%
Cc1cc(F)c(-c2cc(SCC(F)(F)F)c(C)cc2F)cc1SCC(F)(F)F [Compound 1],Mortality (%),[1]; 5 mg/L,100%
same,Mortality (%),[1]; 100 mg/L,100%
same,Mortality (%),[4]; 0.25 mg/L,64%
same,Mortality (%),[4]; 0.5 mg/L,97%
same,Mortality (%),[4]; 1 mg/L,100%
same,Incubation inhibition rate (%),[2]; 0.25 mg/L,18%
same,Incubation inhibition rate (%),[2]; 1 mg/L,34%
same,Incubation inhibition rate (%),[2]; 5 mg/L,100%
same,Mortality (%),spider mites; 50 mg/L,80%
same,Mortality (%),spider mites; 200 mg/L,88%
same,Corrected efficacy (%),"[3]; 25 mg/L, the 1st day after treatment",9%
same,Corrected efficacy (%),"[3]; 25 mg/L, the 3rd day after treatment",53%
same,Corrected efficacy (%),"[3]; 25 mg/L, the 7th day after treatment",74%
same,Corrected efficacy (%),"[3]; 25 mg/L, the 14th day after treatment",77%
same,Corrected efficacy (%),"[3]; 25 mg/L, the 22nd day after treatment",75%
same,Corrected efficacy (%),"[3]; 25 mg/L, the 28th day after treatment",73%
same,Corrected efficacy (%),[3]; [5],18%
same,Corrected efficacy (%),[3]; [6],87%
same,Corrected efficacy (%),[3]; [7],92%
same,Corrected efficacy (%),[3]; [8],91%
same,Corrected efficacy (%),[3]; [9],92%
same,Corrected efficacy (%),[3]; [10],92%
same,Corrected efficacy (%),[3]; [11],25%
same,Corrected efficacy (%),[3]; [12],89%
same,Corrected efficacy (%),[3]; [13],97%
same,Corrected efficacy (%),[3]; [14],99%
same,Corrected efficacy (%),[3]; [15],99%
same,Corrected efficacy (%),[3]; [16],98%
